Data taken from patent US20260184687A1, “DIHYDROINDENE DERIVATIVES AS MALT1 INHIBITORS” (C4X Discovery Limited, priority 2022, published 2026).

What follows are compounds tested against T1, FL hMALT1 enzyme (Homo sapiens, UniProt Q9UDY8) (assay: biochemical).
T1 sequence (Q9UDY8 1-824): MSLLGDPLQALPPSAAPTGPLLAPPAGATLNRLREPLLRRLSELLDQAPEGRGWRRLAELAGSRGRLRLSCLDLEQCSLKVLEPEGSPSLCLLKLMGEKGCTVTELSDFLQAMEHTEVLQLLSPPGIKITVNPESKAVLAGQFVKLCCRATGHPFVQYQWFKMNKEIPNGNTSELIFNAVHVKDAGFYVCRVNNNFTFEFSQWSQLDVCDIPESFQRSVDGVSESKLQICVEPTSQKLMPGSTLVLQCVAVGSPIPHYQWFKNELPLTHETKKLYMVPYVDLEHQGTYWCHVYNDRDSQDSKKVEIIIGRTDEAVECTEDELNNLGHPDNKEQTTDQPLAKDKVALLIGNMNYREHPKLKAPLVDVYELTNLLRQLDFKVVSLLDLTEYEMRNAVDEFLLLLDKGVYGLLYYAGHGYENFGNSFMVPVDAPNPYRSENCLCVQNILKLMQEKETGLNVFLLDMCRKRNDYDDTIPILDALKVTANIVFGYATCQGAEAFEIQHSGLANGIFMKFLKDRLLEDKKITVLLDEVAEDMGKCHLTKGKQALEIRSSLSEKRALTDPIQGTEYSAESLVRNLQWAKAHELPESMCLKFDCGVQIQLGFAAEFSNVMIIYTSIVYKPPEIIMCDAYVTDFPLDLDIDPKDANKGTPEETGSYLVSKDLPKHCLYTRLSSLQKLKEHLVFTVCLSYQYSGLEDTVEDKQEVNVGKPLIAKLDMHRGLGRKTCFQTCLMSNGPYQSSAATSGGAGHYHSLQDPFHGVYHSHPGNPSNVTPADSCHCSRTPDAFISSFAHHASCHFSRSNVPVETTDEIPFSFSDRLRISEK
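Also: Cell-free protease assay: enzyme preincubated with compound 30 min at room temperature, then cleavage of fluorogenic Ac-LVSR-AMC substrate (100 µM) tracked by fluorescence (ex 360/em 460 nm).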
Experimental: MALT1 protease activity was assessed in vitro by measuring the cleavage of a fluorogenic tetrapeptide substrate.
For a higher sensitivity assay, commercially available FL hMALT1 enzyme (Abcam, 1-10 nM) was incubated with substrate (Ac-LVSR-AMC, 100 μM) in reaction buffer comprising 50 mM HEPES (pH7.0), 25 mM KCl, 0.1% (v/v) CHAPS, 1 mM TCEP and 0.7 M sodium citrate.
Test compounds dissolved in DMSO were dispensed into assay plates (384-well, black, shallow ProxiPlates). 7 μl enzyme solution was added and incubated at room temperature for 30 minutes to allow compound binding to occur. 2 μl substrate solution was then added and the fluorescence (excitation 360 nm, emission 460 nm) read every 15 minutes using a suitable plate reader. Final assay DMSO concentration was 1%. […] IC50 values were calculated using GraphPad Prism using a 4-parameter non-linear regression curve fit.

| IC50 [nM] | Structure (SMILES) |
| --- | --- |
| 310 | CN(C(=O)C1CCS(=O)(=O)CC1)[C@@H](c1ccc(NC2Cc3ccc(Cl)c(Cl)c3C2)nc1)C(F)(F)F (single isomer, unassigned) [Example 344] |
| 7 | CN(C(=O)C1CCS(=O)(=O)CC1)[C@@H](c1ccc(NC2Cc3ccc(Cl)c(Cl)c3C2)nc1)C(F)(F)F (single isomer, unassigned) [Example 345] |
| 1100 | CN(C(=O)[C@H]1CNC(=O)C1)[C@@H](c1ccc(NC2Cc3ccc(Cl)c(Cl)c3C2)nc1)C(F)(F)F (single isomer, unassigned) [Example 346] |
| 410 | Cc1ncc(C(=O)N(C)[C@@H](c2ccc(NC3Cc4ccc(Cl)c(F)c4C3)cn2)C(F)(F)F)cn1 (single isomer, unassigned) [Example 348] |
| 1040 | CN(C(=O)CC#N)[C@@H](c1ccc(NC2Cc3ccc(Cl)c(Cl)c3C2)cn1)C(F)(F)F (single isomer, unassigned) [Example 349] |
| 590 | CN(C(=O)C1CN(C(=O)C2CCOC2)C1)[C@@H](c1ccc(NC2Cc3ccc(Cl)c(Cl)c3C2)cn1)C(F)(F)F (single isomer, unassigned) [Example 351] |
| 1000 | CN(C(=O)C1CN(C(=O)C2CCOC2)C1)[C@@H](c1ccc(NC2Cc3ccc(Cl)c(Cl)c3C2)cn1)C(F)(F)F (single isomer, unassigned) [Example 354] |
| 690 | CN(C(=O)C1CCS(=O)(=O)C1)[C@@H](c1ccc(NC2Cc3ccc(Cl)c(Cl)c3C2)cn1)C(F)(F)F (single isomer, unassigned) [Example 357] |
| 480 | CN(C(=O)C1CCS(=O)(=O)C1)[C@@H](c1ccc(NC2Cc3ccc(Cl)c(Cl)c3C2)cn1)C(F)(F)F (single isomer, unassigned) [Example 359] |
| 7200 | CN(C(=O)CN1CCCS1(=O)=O)[C@@H](c1ccc(NC2Cc3ccc(Cl)c(F)c3C2)cn1)C(F)(F)F (single isomer, unassigned) [Example 361] |
| 280 | CN(C(=O)CN1CCCS1(=O)=O)[C@@H](c1ccc(NC2Cc3ccc(Cl)c(F)c3C2)cn1)C(F)(F)F (single isomer, unassigned) [Example 362] |
| 120 | Cc1nnc(N2CC(C(=O)N(C)[C@@H](c3ccc(NC4Cc5ccc(Cl)c(F)c5C4)cn3)C(F)(F)F)C2)o1 (single isomer, unassigned) [Example 364] |
| 3640 | Cc1nnc(N2CC(C(=O)N(C)[C@@H](c3ccc(NC4Cc5ccc(Cl)c(F)c5C4)cn3)C(F)(F)F)C2)o1 (single isomer, unassigned) [Example 365] |
| 3660 | CN(C(=O)CO)[C@@H](c1ccc(NC2Cc3ccc(Cl)c(F)c3C2)cn1)C(F)(F)F (single isomer, unassigned) [Example 366] |
| 310 | CN(C(=O)CO)[C@@H](c1ccc(NC2Cc3ccc(Cl)c(F)c3C2)cn1)C(F)(F)F (single isomer, unassigned) [Example 367] |
| 1370 | CN(C(=O)C1CN(C(=O)C2COC2)C1)[C@@H](c1ccc(NC2Cc3ccc(Cl)c(F)c3C2)cn1)C(F)(F)F (single isomer, unassigned) [Example 370] |
| 490 | Cc1c(Cl)ccc2c1CC(Nc1ccc([C@H](N(C)C(=O)C3CCS(=O)(=O)CC3)C(F)(F)F)nc1)C2 (single isomer, unassigned) [Example 373] |
| 1320 | CN(C(=O)[C@H]1C[C@H](O)C1)[C@@H](c1ccc(NC2Cc3ccc(Cl)c(F)c3C2)cn1)C(F)(F)F (single isomer, unassigned) [Example 375] |
| 1200 | CC(=O)N1CC(C(=O)N(C)[C@@H](c2ccc(NC3Cc4ccc(Cl)c(Cl)c4C3)cn2)C(F)(F)F)C1 (single isomer, unassigned) [Example 376] |

| IC50 [nM] | Structure (SMILES) |
| --- | --- |
| 1290 | CN(C(=O)C1CN(C(=O)CO)C1)[C@@H](c1ccc(NC2Cc3ccc(Cl)c(Cl)c3C2)cn1)C(F)(F)F (single isomer, unassigned) [Example 378] |
| 46 | CN(C(=O)C1CN(C(=O)CO)C1)[C@@H](c1ccc(NC2Cc3ccc(Cl)c(Cl)c3C2)cn1)C(F)(F)F (single isomer, unassigned) [Example 379] |
| 1870 | CN(C(=O)CNS(C)(=O)=O)[C@@H](c1ccc(NC2Cc3ccc(Cl)c(Cl)c3C2)cn1)C(F)(F)F (single isomer, unassigned) [Example 380] |
| 77 | CN(C(=O)CNS(C)(=O)=O)[C@@H](c1ccc(NC2Cc3ccc(Cl)c(Cl)c3C2)cn1)C(F)(F)F (single isomer, unassigned) [Example 381] |
| 95 | CN(C(=O)[C@H]1C[C@@H](O)C1)[C@@H](c1ccc(NC2Cc3ccc(Cl)c(F)c3C2)cn1)C(F)(F)F (single isomer, unassigned) [Example 382] |
| 1600 | CN(C(=O)[C@H]1C[C@@H](O)C1)[C@@H](c1ccc(NC2Cc3ccc(Cl)c(F)c3C2)cn1)C(F)(F)F (single isomer, unassigned) [Example 383] |
| 130 | CN(C(=O)C1CN(C(=O)C2CCO2)C1)[C@@H](c1ccc(NC2Cc3ccc(Cl)c(F)c3C2)cn1)C(F)(F)F (single isomer, unassigned) [Example 385] |
| 2670 | CN(C(=O)C1CN(C(=O)C2CCO2)C1)[C@@H](c1ccc(NC2Cc3ccc(Cl)c(F)c3C2)cn1)C(F)(F)F (single isomer, unassigned) [Example 386] |
| 310 | CN(C(=O)C1CN(C(=O)C2CCO2)C1)[C@@H](c1ccc(NC2Cc3ccc(Cl)c(F)c3C2)cn1)C(F)(F)F (single isomer, unassigned) [Example 387] |
| 490 | CN(C(=O)[C@H]1CCC(=O)NC1)[C@@H](c1ccc(NC2Cc3ccc(Cl)c(F)c3C2)nc1)C(F)(F)F (single isomer, unassigned) [Example 388] |
| 40 | CN(C(=O)[C@H]1CCC(=O)NC1)[C@@H](c1ccc(NC2Cc3ccc(Cl)c(F)c3C2)nc1)C(F)(F)F (single isomer, unassigned) [Example 389] |
| 210 | CC(=O)N1CCC[C@@H]1C(=O)N(C)[C@@H](c1ccc(N[C@H]2Cc3ccccc3C2(C)C)cn1)C(F)(F)F [Example 171, (R)-1-Acetyl-N—((S)-1-(5-(((S)-1,1-dimethyl-2,3-dihydro-1H-inden-2-yl)amino)pyridin-2-yl)-2,2,2-trifluoroethyl)-N-methylpyrrolidine-2-carboxamide] |
| 130 | CN(C(=O)C1CC2(CNC2)C1)[C@@H](c1ccc(N[C@H]2Cc3ccccc3C2(C)C)cn1)C(F)(F)F [Example 173, N—((S)-1-(5-(((S)-1,1-Dimethyl-2,3-dihydro-1H-inden-2-yl)amino)pyridin-2-yl)-2,2,2-trifluoroethyl)-N-methyl-2-azaspiro[3.3]heptane-6-carboxamide] |
| 150 | CN(C(=O)[C@@H]1CC[C@H](NC(=O)C(F)(F)F)C1)[C@@H](c1ccc(N[C@H]2Cc3ccccc3C2(C)C)cn1)C(F)(F)F [Example 184, (1R,3S)—N—((S)-1-(5-(((S)-1,1-Dimethyl-2,3-dihydro-1H-inden-2-yl)amino)pyridin-2-yl)-2,2,2-trifluoroethyl)-N-methyl-3-(2,2,2-trifluoroacetamido)cyclopentane-1-carboxamide] |
| 120 | CNC(=O)C12CC(C(=O)N(C)[C@@H](c3ccc(N[C@@H]4Cc5ccccc5C4(C)C)cn3)C(F)(F)F)(C1)C2 [Example 203, N^1—((S)-1-(5-(((R)-1,1-Dimethyl-2,3-dihydro-1H-inden-2-yl)amino)pyridin-2-yl)-2,2,2-trifluoroethyl)-N^1,N^3-dimethylbicyclo[1.1.1]pentane-1,3-dicarboxamide] |
| 220 | CC(=O)N[C@H]1CC[C@@H](C(=O)N(C)[C@@H](c2ccc(N[C@@H]3Cc4ccccc4C3(C)C)cn2)C(F)(F)F)C1 [Example 204, (1R,3S)-3-Acetamido-N—((S)-1-(5-(((R)-1,1-dimethyl-2,3-dihydro-1H-inden-2-yl)amino)pyridin-2-yl)-2,2,2-trifluoroethyl)-N-methylcyclopentane-1-carboxamide] |
| 110 | CN(C(=O)C1CCS(=O)(=O)CC1)[C@@H](c1ccc(NC2Cc3cccc(Br)c3C2)cn1)C(F)(F)F (stereo partly drawn) [Example 237, N-((1S)-1-(5-((4-Bromo-2,3-dihydro-1H-inden-2-yl)amino)pyridin-2-yl)-2,2,2-trifluoroethyl)-N-methyltetrahydro-2H-thiopyran-4-carboxamide 1,1-dioxide] |
| 460 | CN(C(=O)C1CCS(=O)(=O)CC1)[C@@H](c1ccc(NC2Cc3c(F)ccc(F)c3C2)cn1)C(F)(F)F [Example 273, (S)—N-(1-(5-((4,7-Difluoro-2,3-dihydro-1H-inden-2-yl)amino)pyridin-2-yl)-2,2,2-trifluoroethyl)-N-methyltetrahydro-2H-thiopyran-4-carboxamide 1,1-dioxide] |
| 120 | CN(C(=O)C1(NS(C)(=O)=O)CC1)[C@@H](c1ccc(NC2Cc3ccc(Cl)c(F)c3C2)cn1)C(F)(F)F (stereo partly drawn) [Example 290, N-((1S)-1-(5-((5-Chloro-4-fluoro-2,3-dihydro-1H-inden-2-yl)amino)pyridin-2-yl)-2,2,2-trifluoroethyl)-N-methyl-1-(methylsulfonamido)-cyclopropane-1-carboxamide] |
